Molecular target: T1, human protease activated receptor 1 (PAR-1) (Homo sapiens, UniProt P25116)
T1 construct: the cell stably expresses the endogenous human PAR-1 receptor; endogenous in cells; host or cells: HEK293-derived recombinant cell line that constitutively expresses mitochondrial aequorin
T1 sequence (P25116 22-425): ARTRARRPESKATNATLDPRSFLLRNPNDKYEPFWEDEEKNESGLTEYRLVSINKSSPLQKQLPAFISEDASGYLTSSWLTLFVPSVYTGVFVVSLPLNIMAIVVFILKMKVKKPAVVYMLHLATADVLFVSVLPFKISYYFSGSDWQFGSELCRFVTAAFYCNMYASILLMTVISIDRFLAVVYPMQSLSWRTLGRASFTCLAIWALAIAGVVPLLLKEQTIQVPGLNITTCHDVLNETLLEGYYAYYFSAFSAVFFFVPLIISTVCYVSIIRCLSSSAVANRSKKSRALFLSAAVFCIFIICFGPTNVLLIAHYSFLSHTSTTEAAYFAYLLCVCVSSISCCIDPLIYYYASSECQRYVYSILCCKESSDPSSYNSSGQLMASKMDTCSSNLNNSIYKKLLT
Assay: Cellular functional in vitro test (aequorin luminescence, PAR-1 test cell)
Assay type: cell-based
Details: recombinant HEK293-derived cell line expressing aequorin; PAR-1 agonist at EC50; calcium-dependent luminescence
Description: 1.a) Cellular Functional In Vitro Test
A recombinant cell line is used to identify antagonists of the human protease activated receptor 1 (PAR-1) and to quantify the activity of the substances described herein. The cell is originally derived from a human embryonal kidney cell (HEK293; ATCC: American Type Culture Collection, Manassas, Va. 20108, USA). The test cell line constitutively expresses a modified form of the calcium-sensitive photoprotein acquorin which, after reconstitution with the cofactor coelenterazine, emits light when the free calcium concentration in the inner mitochondrial compartment is increased (Rizzuto R, Simpson A W, Brini M, Pozzan T.; Nature 1992, 358, 325-327). Additionally, the cell stably expresses the endogenous human PAR-1 receptor and the endogenous purinergic receptor P2Y2. The resulting PAR-1 test cell responds to stimulation of the endogenous PAR-1 or P2Y2 receptor with an intracellular release of calcium ions, which can be quantified through the resulting acquorin luminescence with a suitable luminometer (Milligan G, Marshall F, Rees S, Trends in Pharmacological Sciences 1996, 17, 235-237). […]
Test procedure: The cells are plated out two days (48 h) before the test in culture medium (DMEM F12, supplemented with 10% FCS, 2 mM glutamine, 20 mM HEPES, 1.4 mM pyruvate, 0.1 mg/ml gentamycin, 0.15% Na bicarbonate; BioWhittaker Cat.#BE04-687Q; B-4800 Verviers, Belgium) in 384-well microtitre plates and kept in a cell incubator (96% atmospheric humidity, 5% v/v CO2, 37° C.). […] The test substances are then pipetted onto the microtitre plate, and 5 minutes after the transfer of the test substances into the wells of the microtitre plate the plate is transferred into the luminometer, a PAR-1 agonist concentration which corresponds to EC50 is added and the resulting light signal is immediately measured in the luminometer. To distinguish an antagonist substance action from a toxic action, the endogenous purinergic receptor is immediately subsequently activated with agonist (ATP, final concentration 10 μM) and the resulting light signal is measured.

Row | IC50 | SMILES
1 | 2.2 nM | O=C(N1CCOCC1)N1CC(/C=C/c2ccc(-c3cccc(Cl)c3)cn2)CC(c2ccc(C(F)(F)F)cc2)C1 (racemic) [Example 9, (3-{(E)-2-[5-(3-Chlorophenyl)pyridin-2-yl]vinyl}-5-[4-(trifluoromethyl)phenyl]piperidin-1-yl)-(morpholin-4-yl)methanone]
2 | 2 nM | O=C(N1CCOCC1)N1CC(/C=C/c2ccc(-c3cccc(C(F)(F)F)c3)cn2)CC(c2ccc(C(F)(F)F)cc2)C1 (single isomer, unassigned) [Example 5, Morpholin-4-yl{3-[4-(trifluoromethyl)phenyl]-5-[(E)-2-{5-[3-(trifluoromethyl)phenyl]pyridin-2-yl}vinyl]piperidin-1-yl}methanone]
3 | 1.9 nM | COc1ccccc1-c1ccc(/C=C/C2CC(c3ccc(C(F)(F)F)cc3)CN(C(=O)N3CCOCC3)C2)nc1 (racemic) [Example 7, (3-{(E)-2-[5-(2-Methoxyphenyl)pyridin-2-yl]vinyl}-5-[4-(trifluoromethyl)phenyl]piperidin-1-yl)-(morpholin-4-yl)methanone]

Reference: patent US20120142690A1, “Substituted piperidines” (BAYER PHARMA AKTIENGESELLSCHAFT, priority 2009, published 2012)
